# Measurements from patent US10208064B2, “Inhibitors of the renal outer medullary potassium channel” (MERCK SHARP & DOHME CORP., priority 2014, dated 2019).
# Target: ROMK (Kir1.1) channel (Homo sapiens (Human), UniProt P48048)
# Test: Thallium Flux Assay
# Type: cell-based
# Method: The following Thallium Flux Assay was performed on each of the final product compounds in the Examples.
# A Thallium Flux Assay was performed on the compounds of the Examples. This assay has been described previously; see, e.g., PCT Published Application WO 2013/062900.
# Sequence of ROMK (Kir1.1) channel (P48048 whole entry): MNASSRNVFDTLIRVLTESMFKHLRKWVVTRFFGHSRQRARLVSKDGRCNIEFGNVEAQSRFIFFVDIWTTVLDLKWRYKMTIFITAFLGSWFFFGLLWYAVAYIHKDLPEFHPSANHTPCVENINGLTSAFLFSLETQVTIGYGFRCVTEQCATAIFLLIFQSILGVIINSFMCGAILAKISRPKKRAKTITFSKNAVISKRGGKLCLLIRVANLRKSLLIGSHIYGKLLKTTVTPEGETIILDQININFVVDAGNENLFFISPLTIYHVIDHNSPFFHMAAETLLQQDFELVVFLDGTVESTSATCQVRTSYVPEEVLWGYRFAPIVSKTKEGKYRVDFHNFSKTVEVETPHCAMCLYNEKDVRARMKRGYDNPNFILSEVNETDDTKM
row,Structure (SMILES),IC50 [µM]
1,"CC1=C(N2CC[C@@]3(CCN(C[C@@H](O)c4ccc5c(c4)Cn4nnnc4-5)C[C@@H]3F)C2=O)COC1=O [Example 5, (5S,6R)-6-fluoro-8-((S)-2-hydroxy-2-(5H-tetrazolo[5,1-a]isoindol-7-yl)ethyl)-2-(4-methyl-5-oxo-2,5-dihydrofuran-3-yl)-2,8-diazaspiro[4.5]decan-1-one]",0.111
2,"CC1=C(N2CCC3(CCN(C[C@H](O)c4ccc5c(c4C)CCc4nnnn4-5)CC3)C2=O)COC1=O [Example 10, (R)-8-(2-hydroxy-2-(6-methyl-4,5-dihydrotetrazolo[1,5-a]quinolin-7-yl)ethyl)-2-(4-methyl-5-oxo-2,5-dihydrofuran-3-yl)-2,8-diazaspiro[4.5]decan-1-one]",0.046
3,"C[C@@H]1CC2(CCN(C[C@H](O)c3ccc4c(ccc5nnnn54)c3)CC2)C(=O)N1C1=CC(=O)OC1 [Example 16, (R)-8-((R)-2-hydroxy-2-(tetrazolo[1,5-a]quinolin-7-yl)ethyl)-3-methyl-2-(5-oxo-2,5-dihydrofuran-3-yl)-2,8-diazaspiro[4.5]decan-1-one]",0.032
4,"CC1=C(N2CCC3(CCN(C[C@H](O)c4cc5c(cc4C4CC4)-c4nnnn4C5)CC3)C2=O)COC1=O [Example 25, (R)-8-(2-(8-cyclopropyl-5H-tetrazolo[5,1-a]isoindol-7-yl)-2-hydroxyethyl)-2-(4-methyl-5-oxo-2,5-dihydrofuran-3-yl)-2,8-diazaspiro[4.5]decan-1-one]",0.128
5,"CC1=C(N2CCC3(CCN(C[C@@H](O)c4ccc5c(c4C)Cn4nnnc4-5)CC3)C2=O)COC1=O [Example 24, (S)-8-(2-hydroxy-2-(6-methyl-5H-tetrazolo[5,1-a]isoindol-7-yl)ethyl)-2-(4-methyl-5-oxo-2,5-dihydrofuran-3-yl)-2,8-diazaspiro[4.5]decan-1-one]",0.016
6,"CC1=C(N2CCC3(CCN(C[C@@H](O)c4ccc5c(c4Cl)Cn4nnnc4-5)CC3)C2=O)COC1=O [Example 2, (S)-8-(2-(6-chloro-5H-tetrazolo[5,1-a]isoindol-7-yl)-2-hydroxyethyl)-2-(4-methyl-5-oxo-2,5-dihydrofuran-3-yl)-2,8-diazaspiro[4.5]decan-1-one]",0.009
7,"CC1=C(N2CC[C@]3(CCN(C[C@H](O)c4ccc5c(c4)Cn4nnnc4-5)C[C@H]3F)C2=O)COC1=O [Example 4, (5R,6S)-6-fluoro-8-((R)-2-hydroxy-2-(5H-tetrazolo[5,1-a]isoindol-7-yl)ethyl)-2-(4-methyl-5-oxo-2,5-dihydrofuran-3-yl)-2,8-diazaspiro[4.5]decan-1-one]",0.043
8,"CC1=C(N2CCC3(CCN(C[C@@H](O)c4ccc5c(ccc6nnnn65)n4)CC3)C2=O)COC1=O [Example 22, (R)-8-(2-hydroxy-2-(tetrazolo[1,5-a][1,5]naphthyridin-7-yl)ethyl)-2-(4-methyl-5-oxo-2,5-dihydrofuran-3-yl)-2,8-diazaspiro[4.5]decan-1-one]",0.185
9,"CC1=C(N2CCC3(CCN(C[C@H](O)c4ccc5c(ccc6nnnn65)c4)CC3)C2=O)COC1=O [Example 20, (R)-8-(2-hydroxy-2-(tetrazolo[1,5-a]quinolin-7-yl)ethyl)-2-(4-methyl-5-oxo-2,5-dihydrofuran-3-yl)-2,8-diazaspiro[4.5]decan-1-one]",0.011
10,"CC1=C(N2CCC3(CCN(C(CO)c4ccc5c(ccc6nnnn65)c4)CC3)C2=O)COC1=O (racemic) [Example 28, 8-(2-hydroxy-1-(tetrazolo[1,5-a]quinolin-7-yl)ethyl)-2-(4-methyl-5-oxo-2,5-dihydrofuran-3-yl)-2,8-diazaspiro[4.5]decan-1-one]",0.018
11,"C[C@H]1CC2(CCN(C[C@@H](O)c3ccc4c(ccc5nnnn54)c3)CC2)C(=O)N1C1=CC(=O)OC1 [Example 19, (S)-8-((S)-2-hydroxy-2-(tetrazolo[1,5-a]quinolin-7-yl)ethyl)-3-methyl-2-(5-oxo-2,5-dihydrofuran-3-yl)-2,8-diazaspiro[4.5]decan-1-one]",0.01
12,"CC1=C(N2CCC3(CCN(C[C@H](O)c4ccc5c(c4Cl)Cn4nnnc4-5)CC3)C2=O)COC1=O [Example 1, (R)-8-(2-(6-chloro-5H-tetrazolo[5,1-a]isoindol-7-yl)-2-hydroxyethyl)-2-(4-methyl-5-oxo-2,5-dihydrofuran-3-yl)-2,8-diazaspiro[4.5]decan-1-one]",0.031
13,"C[C@H]1CC2(CCN(C[C@H](O)c3ccc4c(ccc5nnnn54)c3)CC2)C(=O)N1C1=CC(=O)OC1 [Example 17, (S)-8-((R)-2-hydroxy-2-(tetrazolo[1,5-a]quinolin-7-yl)ethyl)-3-methyl-2-(5-oxo-2,5-dihydrofuran-3-yl)-2,8-diazaspiro[4.5]decan-1-one]",0.02
14,"C[C@H]1CC2(CCN(C[C@H](O)c3ccc4c(c3)CCc3nnnn3-4)CC2)C(=O)N1C1=CC(=O)OC1 [Example 13, (S)-8-((R)-2-(4,5-dihydrotetrazolo[1,5-a]quinolin-7-yl)-2-hydroxyethyl)-3-methyl-2-(5-oxo-2,5-dihydrofuran-3-yl)-2,8-diazaspiro[4.5]decan-1-one]",0.023
15,"C[C@@H]1CC2(CCN(C[C@H](O)c3ccc4c(c3)CCc3nnnn3-4)CC2)C(=O)N1C1=CC(=O)OC1 [Example 12, (R)-8-((R)-2-(4,5-dihydrotetrazolo[1,5-a]quinolin-7-yl)-2-hydroxyethyl)-3-methyl-2-(5-oxo-2,5-dihydrofuran-3-yl)-2,8-diazaspiro[4.5]decan-1-one]",0.188
16,"CC1=C(N2CCC3(CCN(C[C@@H](O)c4ccc5c(c4C)CCc4nnnn4-5)CC3)C2=O)COC1=O [Example 11, (S)-8-(2-hydroxy-2-(6-methyl-4,5-dihydrotetrazolo[1,5-a]quinolin-7-yl)ethyl)-2-(4-methyl-5-oxo-2,5-dihydrofuran-3-yl)-2,8-diazaspiro[4.5]decan-1-one]",0.047
17,"CC1=C(N2CCC3(CCN(C[C@H](O)c4ccc5c(c4)Cn4nnnc4-5)CC3)C2=O)COC1=O [Example 8, (R)-8-(2-hydroxy-2-(5H-tetrazolo[5,1-a]isoindol-7-yl)ethyl)-2-(4-methyl-5-oxo-2,5-dihydrofuran-3-yl)-2,8-diazaspiro[4.5]decan-1-one]",0.013
18,"CC1=C(N2CC[C@]3(CCN(C[C@@H](O)c4ccc5c(c4)Cn4nnnc4-5)C[C@H]3F)C2=O)COC1=O [Example 6, (5R,6S)-6-fluoro-8-((S)-2-hydroxy-2-(5H-tetrazolo[5,1-a]isoindol-7-yl)ethyl)-2-(4-methyl-5-oxo-2,5-dihydrofuran-3-yl)-2,8-diazaspiro[4.5]decan-1-one]",0.04
19,"C[C@@H]1CC2(CCN(C[C@@H](O)c3ccc4c(c3)CCc3nnnn3-4)CC2)C(=O)N1C1=CC(=O)OC1 [Example 14, (R)-8-((S)-2-(4,5-dihydrotetrazolo[1,5-a]quinolin-7-yl)-2-hydroxyethyl)-3-methyl-2-(5-oxo-2,5-dihydrofuran-3-yl)-2,8-diazaspiro[4.5]decan-1-one]",0.284
20,"CC1=C(N2CCC3(CCN(C[C@H](O)c4ccc5c(c4C)Cn4nnnc4-5)CC3)C2=O)COC1=O [Example 23, (R)-8-(2-hydroxy-2-(6-methyl-5H-tetrazolo[5,1-a]isoindol-7-yl)ethyl)-2-(4-methyl-5-oxo-2,5-dihydrofuran-3-yl)-2,8-diazaspiro[4.5]decan-1-one]",0.017
21,"CC1=C(N2CCC3(CCN(C[C@@H](O)c4ccc5c(ccc6nnnn65)c4)CC3)C2=O)COC1=O [Example 21, (S)-8-(2-hydroxy-2-(tetrazolo[1,5-a]quinolin-7-yl)ethyl)-2-(4-methyl-5-oxo-2,5-dihydrofuran-3-yl)-2,8-diazaspiro[4.5]decan-1-one]",0.019

# The next lines start with the values.
row,IC50 [µM],Structure (SMILES)
1,0.036,"CC1=C(N2CCC3(CCN(C[C@H](O)c4ccc5c(c4)[C@@H](C)n4nnnc4-5)CC3)C2=O)COC1=O [Example 27C, 8-((R)-2-hydroxy-2-((R)-5-methyl-5H-tetrazolo[5,1-a]isoindol-7-yl)ethyl)-2-(4-methyl-5-oxo-2,5-dihydrofuran-3-yl)-2,8-diazaspiro[4.5]decan-1-one]"
2,0.034,"CC1=C(N2CCC3(CCN(C[C@H](O)c4ccc5c(c4)CCc4nnnn4-5)CC3)C2=O)COC1=O [Example 7A, (R)-8-(2-(4,5-dihydrotetrazolo[1,5-a]quinolin-7-yl)-2-hydroxyethyl)-2-(4-methyl-5-oxo-2,5-dihydrofuran-3-yl)-2,8-diazaspiro[4.5]decan-1-one]"
3,0.027,"CC1=C(N2CCC3(CCN(CC(O)c4ccc5c(c4)[C@@H](C)n4nnnc4-5)CC3)C2=O)COC1=O (stereo partly drawn) [Example 27B, 8-(2-hydroxy-2-((R)-5-methyl-5H-tetrazolo[5,1-α]isoindol-7-yl)ethyl)-2-(4-methyl-5-oxo-2,5-dihydrofuran-3-yl)-2,8-diazaspiro[4.5]decan-1-one]"
4,0.029,"CC1=C(N2CCC3(CCN(C[C@@H](O)c4ccc5c(c4)[C@@H](C)n4nnnc4-5)CC3)C2=O)COC1=O [Example 27D, 8-((S)-2-hydroxy-2-((R)-5-methyl-5H-tetrazolo[5,1-a]isoindol-7-yl)ethyl)-2-(4-methyl-5-oxo-2,5-dihydrofuran-3-yl)-2,8-diazaspiro[4.5]decan-1-one]"
5,0.087,"CC1=C(N2CCC3(CCN(CC(O)c4ccc5c(c4)[C@H](C)n4nnnc4-5)CC3)C2=O)COC1=O (stereo partly drawn) [Example 27A, 8-(2-hydroxy-2-((S)-5-methyl-5H-tetrazolo[5,1-α]isoindol-7-yl)ethyl)-2-(4-methyl-5-oxo-2,5-dihydrofuran-3-yl)-2,8-diazaspiro[4.5]decan-1-one]"
6,0.038,"CC1=C(N2CCC3(CCN(C[C@@H](O)c4ccc5c(c4)CCc4nnnn4-5)CC3)C2=O)COC1=O [Example 7B, (S)-8-(2-(4,5-dihydrotetrazolo[1,5-a]quinolin-7-yl)-2-hydroxyethyl)-2-(4-methyl-5-oxo-2,5-dihydrofuran-3-yl)-2,8-diazaspiro[4.5]decan-1-one]"
7,0.044,"CC1=C(N2CCC3(CCN([C@H](CO)c4ccc5c(ccc6nnnn65)c4)CC3)C2=O)COC1=O [Example 28A, (S)-8-(2-hydroxy-1-(tetrazolo[1,5-a]quinolin-7-yl)ethyl)-2-(4-methyl-5-oxo-2,5-dihydrofuran-3-yl)-2,8-diazaspiro[4.5]decan-1-one]"
